Reference: the supplement of paper PMC11451515

Tested on: P12-Ichikawa
Assay: cell viability relative to DMSO control; higher = less cytotoxic
Conditions: 48 h
In short: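 Before seeding, each leukemia line was adapted for at least four passages in each medium. NOMO1 or SEM cells (500 cells/well) and P12-Ichikawa cells (1000 cells/well) went into 1536-well plates at 5 μl, then received library compounds in DMSO by pin dosing across 11 threefold concentrations, 47 μM to 0.79 nM. Readout was CellTiter-Glo One luminescence after 48 h at 37°C, and viability is given as a per-plate percentage of DMSO wells, with cell-free wells as background.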

[1] = HPLM + 10% dialyzed FBS, 0.000781 µM
[2] = HPLM + 10% dialyzed FBS, 0.00234 µM
[3] = HPLM + 10% dialyzed FBS, 0.00702 µM
[4] = HPLM + 10% dialyzed FBS, 0.0211 µM
[5] = HPLM + 10% dialyzed FBS, 0.0632 µM
[6] = HPLM + 10% dialyzed FBS, 0.19 µM
[7] = HPLM + 10% dialyzed FBS, 0.569 µM
[8] = HPLM + 10% dialyzed FBS, 1.71 µM
[9] = HPLM + 10% dialyzed FBS, 5.12 µM
[10] = HPLM + 10% dialyzed FBS, 15.4 µM
[11] = HPLM + 10% dialyzed FBS, 46.1 µM
[12] = RPMI 5 mM glucose + 10% FBS, 0.000781 µM
[13] = RPMI 5 mM glucose + 10% FBS, 0.00234 µM
[14] = RPMI 5 mM glucose + 10% FBS, 0.00702 µM
[15] = RPMI 5 mM glucose + 10% FBS, 0.0211 µM
[16] = RPMI 5 mM glucose + 10% FBS, 0.0632 µM
[17] = RPMI 5 mM glucose + 10% FBS, 0.19 µM
[18] = RPMI 5 mM glucose + 10% FBS, 0.569 µM
[19] = RPMI 5 mM glucose + 10% FBS, 1.71 µM
[20] = RPMI 5 mM glucose + 10% FBS, 5.12 µM
[21] = RPMI 5 mM glucose + 10% FBS, 15.4 µM
[22] = RPMI 5 mM glucose + 10% FBS, 46.1 µM
[23] = RPMI 5 mM glucose + 10% dialyzed FBS, 0.000781 µM
[24] = RPMI 5 mM glucose + 10% dialyzed FBS, 0.00234 µM
[25] = RPMI 5 mM glucose + 10% dialyzed FBS, 0.00702 µM
[26] = RPMI 5 mM glucose + 10% dialyzed FBS, 0.0211 µM
[27] = RPMI 5 mM glucose + 10% dialyzed FBS, 0.0632 µM
[28] = RPMI 5 mM glucose + 10% dialyzed FBS, 0.19 µM
[29] = RPMI 5 mM glucose + 10% dialyzed FBS, 0.569 µM
[30] = RPMI 5 mM glucose + 10% dialyzed FBS, 1.71 µM
[31] = RPMI 5 mM glucose + 10% dialyzed FBS, 5.12 µM
[32] = RPMI 5 mM glucose + 10% dialyzed FBS, 15.4 µM
[33] = RPMI 5 mM glucose + 10% dialyzed FBS, 46.1 µM

| Structure (SMILES) | cell viability [1] [%] | cell viability [2] [%] | cell viability [3] [%] | cell viability [4] [%] | cell viability [5] [%] | cell viability [6] [%] | cell viability [7] [%] | cell viability [8] [%] | cell viability [9] [%] | cell viability [10] [%] | cell viability [11] [%] | cell viability [12] [%] | cell viability [13] [%] | cell viability [14] [%] | cell viability [15] [%] | cell viability [16] [%] | cell viability [17] [%] | cell viability [18] [%] | cell viability [19] [%] | cell viability [20] [%] | cell viability [21] [%] | cell viability [22] [%] | cell viability [23] [%] | cell viability [24] [%] | cell viability [25] [%] | cell viability [26] [%] | cell viability [27] [%] | cell viability [28] [%] | cell viability [29] [%] | cell viability [30] [%] | cell viability [31] [%] | cell viability [32] [%] | cell viability [33] [%] |
| --- | --- | --- | --- | --- | --- | --- | --- | --- | --- | --- | --- | --- | --- | --- | --- | --- | --- | --- | --- | --- | --- | --- | --- | --- | --- | --- | --- | --- | --- | --- | --- | --- | --- |
| CC1(C)O[C@H]2CC(=O)OC[C@]23[C@H]2CC[C@@]4(C)[C@H](c5ccoc5)OC(=O)[C@H]5O[C@]54[C@]2(C)C(=O)C[C@@H]13 | 95.9 | 107 | 101 | 105 | 110 | 110 | 115 | 102 | 115 | 99.5 | 110 | 88.3 | 102 | 102 | 93.8 | 98.4 | 107 | 106 | 95.6 | 107 | 105 | 112 | 90.8 | 96.2 | 104 | 97.6 | 105 | 95.2 | 101 | 100 | 96.1 | 98.2 | 96.7 |
| COc1ccc(-c2c(-c3ccc(O)cc3O)n[nH]c2C)cc1 | 108 | 101 | 117 | 112 | 114 | 106 | 112 | 107 | 105 | 101 | 78.1 | 99.8 | 105 | 105 | 100 | 110 | 106 | 105 | 112 | 102 | 95.6 | 68.6 | 101 | 106 | 110 | 111 | 107 | 113 | 113 | 113 | 105 | 101 | 89.5 |
| CC(C)[C@@H](N(CCCN)C(=O)C1=CC=C(C)C=C1)C/2=C(\CC3=CC=CC=C3)C(=O)C4=C(O2)C=C(Cl)C=C4 | 37.7 | 12.6 | 11.5 | 14.2 | 9.91 | 11.7 | 12.2 | 11 | 10.3 | 11.8 | 12.8 | 18.4 | 15.8 | 15 | 18.5 | 18 | 17.6 | 14 | 17.7 | 15.8 | 15.7 | 9.01 | 70.7 | 20.4 | 20.7 | 21.9 | 22.4 | 22.5 | 18.6 | 20.9 | 21.2 | 19.8 | 16.2 |
| Cc1nc2c([nH]1)-c1ccccc1N(C(=O)c1ccc(NC(=O)c3ccccc3-c3ccccc3)cc1)CC2 | 114 | 120 | 122 | 117 | 127 | 126 | 124 | 128 | 121 | 128 | 128 |  |  |  |  |  |  |  |  |  |  |  |  |  |  |  |  |  |  |  |  |  |  |
| OC1=C(C=CC=C1)C2=CC=C(C=C2)C3=CSC4=C3C(=C(/C#N)C(=O)N4)/O | 124 | 127 | 124 | 124 | 119 | 119 | 112 | 116 | 114 | 111 | 110 |  |  |  |  |  |  |  |  |  |  |  |  |  |  |  |  |  |  |  |  |  |  |
| CN(C)c1ccc(C(=O)NCCCCCCC(=O)NO)cc1 | 107 | 102 | 114 | 104 | 110 | 111 | 102 | 44 | 1.14 | 0.537 | 1.62 | 101 | 104 | 109 | 110 | 116 | 108 | 99.5 | 46.9 | 1.46 | 0.517 | 1.9 | 94.9 | 105 | 113 | 116 | 122 | 121 | 98.6 | 25.4 | 1.41 | 0.539 | 1.68 |
| C[C@H]1[C@@H](CC(C[C@H]2O[C@@H]3O[C@]4(C)CC[C@H]5[C@H](C)CC[C@@H]([C@H]2C)[C@@]35OO4)C[S+](=O)([O-])c2ccc(COC(=O)N(C)C)cc2)O[C@@H]2O[C@]3(C)CC[C@H]4[C@H](C)CC[C@@H]1[C@@]24OO3 | 114 | 111 | 103 | 117 | 110 | 102 | 85.5 | 55.5 | 49.7 | 39 | 13.8 | 114 | 122 | 113 | 122 | 113 | 116 | 81.7 | 52 | 53.2 | 33.5 | 21.8 | 118 | 110 | 107 | 110 | 103 | 106 | 50.7 | 41.7 | 36.9 | 39.7 | 35 |
| COc1ccc(CCC(=O)Nc2nc3ccc(Cl)cc3s2)cc1OC | 106 | 106 | 106 | 112 | 111 | 107 | 110 | 102 | 104 | 99.3 | 98.6 | 109 | 118 | 94.9 | 114 | 111 | 110 | 110 | 108 | 109 | 107 | 92.1 | 113 | 94.1 | 105 | 113 | 110 | 105 | 99.7 | 105 | 103 | 91.9 | 92.6 |
| CCCn1c(=O)c2[nH]c(-c3cnn(Cc4cccc(C(F)(F)F)c4)c3)nc2n(CC)c1=O | 108 | 106 | 122 | 112 | 112 | 115 | 109 | 106 | 88.1 | 83.3 | 84.7 | 115 | 124 | 123 | 137 | 125 | 118 | 85.6 | 73 | 65.1 | 74.6 | 72.9 | 114 | 109 | 105 | 108 | 107 | 109 | 109 | 103 | 81.4 | 73.6 | 68.8 |
| Cl.Cl.Fc1ccc(C(OCCN2CCN(CCCc3ccccc3)CC2)c2ccc(F)cc2)cc1 | 105 | 104 | 109 | 112 | 116 | 109 | 109 | 113 | 120 | 113 | 78.4 | 114 | 133 | 118 | 123 | 136 | 126 | 126 | 124 | 122 | 124 | 73.9 | 115 | 121 | 119 | 117 | 127 | 121 | 122 | 115 | 120 | 120 | 62.8 |
| c1cc(-c2sc(-c3ccncc3)c(-c3ccncc3)c2-c2ccncc2)ccn1 | 101 | 109 | 108 | 115 | 121 | 123 | 118 | 107 | 110 | 112 | 106 | 97.9 | 114 | 102 | 113 | 121 | 123 | 121 | 126 | 110 | 112 | 104 | 97.3 | 111 | 109 | 117 | 115 | 120 | 124 | 118 | 111 | 113 | 98.9 |
| COc1cc2c(NC3CCN(C(C)C)CC3)nc(C3CCCCC3)nc2cc1OCCCN1CCCC1 | 107 | 110 | 115 | 121 | 121 | 121 | 120 | 123 | 119 | 105 | 4.7 | 112 | 127 | 113 | 127 | 121 | 116 | 120 | 131 | 112 | 96.9 | 3.81 | 106 | 117 | 114 | 121 | 123 | 129 | 122 | 133 | 110 | 91.5 | 4.78 |
| CCCn1c(=O)c2[nH]c(C34CC5CC3C[C@@H](C5)C4)nc2n(CCC)c1=O | 111 | 107 | 100 | 97.8 | 112 | 110 | 107 | 99.5 | 93.6 | 96.6 | 96.1 | 102 | 113 | 112 | 110 | 136 | 106 | 64.5 | 80.3 | 85.5 | 86.1 | 90 | 94.2 | 101 | 92.4 | 96.9 | 99.9 | 100 | 94.2 | 98.7 | 98 | 93.2 | 88.6 |
| c1ccc2c(Oc3nc(Nc4ccc(N5CCOCC5)cc4)c4ncn(C5CCCCC5)c4n3)cccc2c1 | 116 | 118 | 126 | 132 | 126 | 121 | 126 | 132 | 134 | 137 | 130 |  |  |  |  |  |  |  |  |  |  |  |  |  |  |  |  |  |  |  |  |  |  |
| COc1ccc(Cn2ccc3ccc(C(=O)NO)cc32)cc1 | 116 | 121 | 119 | 87.4 | 128 | 123 | 120 | 119 | 113 | 90.3 | 44 | 108 | 114 | 120 | 65.3 | 134 | 125 | 130 | 120 | 120 | 83.5 | 52.3 | 116 | 116 | 116 | 79.9 | 126 | 126 | 129 | 119 | 114 | 87 | 55.6 |
| CC(C)(C)C1=NC2=C([NH]1)C3=CC=C(F)C=C3C4=C2\C=C/NC4=O |  |  |  |  |  |  |  |  |  |  |  | 118 | 133 | 123 | 134 | 123 | 122 | 113 | 108 | 69.7 | 17.8 | 72.1 |  |  |  |  |  |  |  |  |  |  |  |
| COc1cc(/C=C/C(=O)CC(=O)/C=C/c2ccc(O)c(OC)c2)ccc1O | 99.1 | 96.9 | 108 | 104 | 110 | 105 | 109 | 106 | 96.4 | 27.8 | 5.27 | 102 | 104 | 98.4 | 113 | 113 | 110 | 105 | 104 | 99.1 | 61.2 | 4.23 | 98.8 | 102 | 105 | 110 | 104 | 98.2 | 104 | 113 | 102 | 60.3 | 4.18 |
